In US4487770A, “Treatment of diseases of the liver, kidney, colon and rectum” (Nippon Shinyaku Co., Ltd., priority 1981, dated 1984):
Read-outs that look alike come from different tables or passages of the source.

How the values were obtained:
erythrocytic membrane = assay: Enhancement of resistance of erythrocytic membrane (hypoosmotic hemolysis); assay type: cell-based, rat (Sprague-Dawley strain); settings: for inhibition at 770 µM / hemolysis at 770 µM: Rattus norvegicus, Erythrocyte, 0.5 h; for inhibition at 770 µM: read-out: Percent Inhibition Ratio (hemolysis); for hemolysis at 770 µM: average of five ± S.E., p < 0.05
Method: Enhancement of resistance of erythrocytic membrane
Sprague-Dawley strain rats were treated with heparine and blood samples were obtained therefrom. The blood was centrifuged at 3000 rpm for ten minutes to remove blood plasma and then washed with 10 mM phosphate buffer-physiological saline solution (pH 7) to wash erythrocyte. To each volume of blood required to obtain the erythrocyte, 19 volumes of hypoosmotic solution (containing 10 mM phosphate buffer) was added and an erythrocyte suspension (5% erythrocyte suspension) was prepared. With reference to hemolysis, the absorbancy (O.D.) at 540 nm using distilled water as the hypoosmotic solution so that completely hemolyzed was defined as "100% hemolysis".
An erythrocyte suspension with 0.4%/0.45% hypoosmotic saline solution was incubated at 37° C. for 30 minutes, centrifuged at 3000 rpm for 10 minutes, and the percent hemolysis was calculated from the O.D. of the supernatant liquid.

[1] = test system: guinea pigs having colitis caused by amylopectine sulfate; assay: Effect on colitis induced by administration of amylopectine sulfate (APS); assay type: in vivo, guinea pig (Hartley strain); settings: 2 weeks; for Symptom: Colitis Incidence: saline group 100%; for Symptom: Area of Ulcer: saline group 120 ± 24
Method: Effect on colitis induced by administration of amylopectine sulfate (according to the method reported in J. Gastroenterology, 67, 473-483, 1974 by Marcus, R and Watt)
Sixty male guinea pigs of Hartley strain (body weight: 200 grams) were used. Among them, fifty guinea pigs were given tap water containing 1% amylopectine sulfate ("APS") as drinking water and were bred for four weeks. (APS contains about 15% sulfur.)
The animals in these five groups were administered 1 ml/kg/day of physiological saline solution and 5, 10, 25 and 50 mg/kg/day of compound I for two weeks by oral route. The other ten guinea pigs were untreated controls and were given untreated tap water as drinking water and were bred for four weeks under the same circumstances as those of the experimental groups.
After two weeks, the animals were killed by overinhalation of ether, the large intestines were removed and the degree of colitis was determined by observing the incidence of ulcers and the area of ulcers with a stereoscopic microscope (×10). The results are given in Table 1, and the changes in body weight during the administration of the compound I is given in the drawing.

[2] = Acute toxicity test in mice; assay type: in vivo; settings: mouse, in vivo, read-out: LD50 (95% fiducial limits)
Description: (§1) The LD50 values of compound I in ddY strain mice (6 weeks of age) and in Sprague-Dawley strain rats (7 weeks of age) are given in Table 4.

ddY strain mice = assay: Acute toxicity test in mice; assay type: in vivo; settings: mice and rats
Description: as §1

[3] = Acute toxicity test in rats; settings: rat, in vivo, read-out: LD50 (95% fiducial limits)
Description: as §1

[4] = test system: hepatic and renal disorders induced by carbon tetrachloride in rats; assay: Effect on hepatic and renal disorders induced by administration of carbon tetrachloride; assay type: in vivo, rat (Sprague-Dawley strain); settings: after CCl4; for Body Weight: average ± S.E., n=10; for Liver Wt.: saline 10.5 ± 1.9; for BUN: saline 56.6 ± 10.6; for GPT: saline 2206 ± 298; for LDH: saline 22425 ± 9211
Method: Effect on hepatic and renal disorders induced by administration of carbon tetrachloride
Five groups of male rats of Sprague-Dawley strain (body weight: 200 grams) were used (ten rats per group). All of these rats were given 4 ml/kg of 50% carbon tetrachloride (used with olive oil) by oral route. After 24 hours, the rats were killed by decapitation, and blood was taken and the liver was isolated therefrom. Previously, the rats were fasted for 18 hours before taking blood therefrom. The blood was subjected to quantitative determination of GOT, GPT, LDH and BUN and the weights of isolated livers were measured.
Compound I was given to the rats of four groups, two to six hours after the administration of carbon tetrachloride (in other words, at the time when hepatic and renal disorders caused by carbon tetrachloride had already appeared) at the dose of 5, 10, 25 or 50 mg/kg by oral route. Physiological saline in an amount of 1 ml/kg/day to the rats of the fifth group. Rats of a sixth group that received no carbon tetrachloride, served as a control, and were also autospied, as above.

intestinal bacteria = assay: action on intestinal bacteria, standard test by Japan Antibiotic Association
Description: As a mechanism for the resulting colitis by administration of APS, the physico-chemical properties of APS must be involved. […] Therefore, there is no contribution of antibacterial activity in the effect of compound I against colitis. In view of the above, it is clear that the effect of the compound I against colitis is due to the direct protection of large intestinal mucosal cells by compound I.

solubility in water = assay type: physicochemical

SMILES: Nc1nc(N)nc(-c2cc(Cl)ccc2Cl)n1.O=C(O)/C=C\C(=O)O [Compound I, 2,4-diamino-6-(2', 5'-dichlorophenyl)-s-triazine maleate]
- inhibition of hemolysis (in words) (erythrocytic membrane; 0.77 mM, 0.4 and 0.45% saline): shows inhibition of hemolysis
- protective action to erythrocyte membranes (in words) (erythrocytic membrane; 0.77 mM, 0.4 and 0.45% saline): exhibits protective action to erythrocyte membranes
- inhibition at 770 µM (erythrocytic membrane; 0.77 mM, 0.4% saline solution): 35.5%
- inhibition at 770 µM (erythrocytic membrane; 0.77 mM, 0.45% saline solution): 62.2%
- hemolysis at 770 µM (erythrocytic membrane; read-out: Percent Hemolysis Ratio, 0.77 mM, 0.4% saline solution, control 70.8 ± 0.6): 45.7 ± 1.8%
- hemolysis at 770 µM (erythrocytic membrane; read-out: Percent Hemolysis Ratio, 0.77 mM, 0.45% saline solution, control 27.5 ± 2.1): 10.4 ± 1.1%
- Average Intake of APS, after administration of Compound I ([1]; 5 mg/kg/day oral): 0.91 g/kg/2w
- Increase in Body Weight (2-4 wks) ([1]; 5 mg/kg/day oral, saline group 2 ± 10, control 110 ± 11): 11 ± 12 g
- Symptom: Colitis Incidence ([1]; 5 mg/kg/day oral): 90%
- Symptom: Area of Ulcer ([1]; 5 mg/kg/day oral): 65 ± 20 mm^2
- Average Intake of APS, after administration of Compound I ([1]; 10 mg/kg/day oral): 1.12 g/kg/2w
- Increase in Body Weight (2-4 wks) ([1]; 10 mg/kg/day oral, saline group 2 ± 10, control 110 ± 11): 26 ± 15 g
- Symptom: Colitis Incidence ([1]; 10 mg/kg/day oral): 80%
- Symptom: Area of Ulcer ([1]; 10 mg/kg/day oral): 50 ± 24 mm^2
- Average Intake of APS, after administration of Compound I ([1]; 25 mg/kg/day oral): 1.26 g/kg/2w
- Increase in Body Weight (2-4 wks) ([1]; 25 mg/kg/day oral, saline group 2 ± 10, p < 0.05): 36 ± 13 g
- Symptom: Colitis Incidence ([1]; 25 mg/kg/day oral): 60%
- Symptom: Area of Ulcer ([1]; 25 mg/kg/day oral, p < 0.05): 43 ± 15 mm^2
- Average Intake of APS, after administration of Compound I ([1]; 50 mg/kg/day oral): 1.24 g/kg/2w
- Increase in Body Weight (2-4 wks) ([1]; 50 mg/kg/day oral, saline group 2 ± 10, p < 0.05): 54 ± 10 g
- Symptom: Colitis Incidence ([1]; 50 mg/kg/day oral): 60%
- Symptom: Area of Ulcer ([1]; 50 mg/kg/day oral, p < 0.05): 34 ± 12 mm^2
- effect on body weight of afflicted animals (in words, drawing) ([1]; oral): greatly increases the body weight of the afflicted animals
- effect on colitis (in words) ([1]; oral): improvement in the colitis followed by increase in body weight was observed
- intake of APS (in words) ([1]; oral): the intake of APS did not decrease, but rather increased
- LD50 ([2]; ip, mice female, intraperitoneal): 1010 mg/kg
- LD50 ([2]; ip, mice male, intraperitoneal): 775 mg/kg
- LD50 ([2]; po, mice female, oral): 5700 mg/kg
- LD50 ([2]; po, mice male, oral): 6040 mg/kg
- LD50 ([2]; sc, mice female, subcutaneous): 3220 mg/kg
- LD50 ([2]; sc, mice male, subcutaneous): 2840 mg/kg
- safety (LD50 compared with effective dose, in words) (ddY strain mice): highly safe
- LD50 ([3]; ip, rats female, intraperitoneal): 789 mg/kg
- LD50 ([3]; ip, rats male, intraperitoneal): 802 mg/kg
- LD50 ([3]; po, rats female, oral): 2920 mg/kg
- LD50 ([3]; po, rats male, oral): 2900 mg/kg
- LD50 ([3]; sc, rats female, subcutaneous): 1520 mg/kg
- LD50 ([3]; sc, rats male, subcutaneous): 1600 mg/kg
- Body Weight ([4]; 5 mg/kg oral): 198.6 ± 0.5 g
- Liver Wt. ([4]; 5 mg/kg oral): 9.6 ± 2.2 g
- BUN ([4]; 5 mg/kg oral): 42.0 ± 9.8 mg/dL
- GPT ([4]; 5 mg/kg oral): 1920 ± 306 Karmen Unit
- LDH ([4]; 5 mg/kg oral): 16341 ± 9009 Wroblewski Unit
- GOT ([4]; 5 mg/kg oral, saline printed 3,91 ± 361): 2215 ± 250 Karmen Unit
- Body Weight ([4]; 10 mg/kg oral): 199.1 ± 0.7 g
- GOT ([4]; 10 mg/kg oral, p < 0.05 vs saline): 1822 ± 249 Karmen Unit
- Liver Wt. ([4]; 10 mg/kg oral): 9.5 ± 2.5 g
- BUN ([4]; 10 mg/kg oral): 34.6 ± 7.2 mg/dL
- GPT ([4]; 10 mg/kg oral): 1566 ± 354 Karmen Unit
- LDH ([4]; 10 mg/kg oral): 12209 ± 6214 Wroblewski Unit
- Body Weight ([4]; 25 mg/kg oral): 200.6 ± 0.6 g
- Liver Wt. ([4]; 25 mg/kg oral): 8.3 ± 1.5 g
- BUN ([4]; 25 mg/kg oral): 31.4 ± 8.8 mg/dL
- GPT ([4]; 25 mg/kg oral, p < 0.05): 1012 ± 261 Karmen Unit
- LDH ([4]; 25 mg/kg oral): 8054 ± 3666 Wroblewski Unit
- Body Weight ([4]; 50 mg/kg oral): 198.6 ± 0.8 g
- GOT ([4]; 50 mg/kg oral, p < 0.05 vs saline): 1339 ± 211 Karmen Unit
- Liver Wt. ([4]; 50 mg/kg oral): 7.4 ± 2.0 g
- BUN ([4]; 50 mg/kg oral, p < 0.05): 29.7 ± 3.5 mg/dL
- GPT ([4]; 50 mg/kg oral, p < 0.05): 805 ± 134 Karmen Unit
- LDH ([4]; 50 mg/kg oral, p < 0.05): 5003 ± 1642 Wroblewski Unit
- effect on increase of BUN (in words) ([4]; oral): inhibited the increase of BUN
- effect on liver weight, GOT, GPT and LDH (in words) ([4]; oral): depressed the increase of liver weight and the increase in GOT, GPT, and LDH
- action on intestinal bacteria (intestinal bacteria): does not exhibit any action on intestinal bacteria
- solubility at 0.5 h (solubility in water; saturated solution in water): 770 µM
- solubility in water (in words) (solubility in water; water): hardly soluble in water
